Test results from PubChem BioAssay AID651964 (The Scripps Research Institute Molecular Screening Center, 2012).

What was measured:
Experiment in all cases: PubChem AID 651964; call rule not given here
HO-1 = conditions: mouse embryonic fibroblasts, qRT-PCR mRNA fold induction, at 10 µM (top of the series)
BiP = conditions: mouse embryonic fibroblasts, qRT-PCR mRNA fold induction, at 10 µM (top of the series)
GCLM = conditions: mouse embryonic fibroblasts, qRT-PCR mRNA fold induction, at 10 µM (top of the series)
Hsp70 = conditions: mouse embryonic fibroblasts, qRT-PCR mRNA fold induction, at 10 µM (top of the series)
[1] = target: DNA damage-inducible transcript 3 protein (Mus musculus) (UniProt P35639); conditions: mouse embryonic fibroblasts, qRT-PCR mRNA fold induction; CHOP; at 10 µM (top of the series)
Chain of DNA damage-inducible transcript 3 protein (Mus musculus) (P35639 whole entry, looked up): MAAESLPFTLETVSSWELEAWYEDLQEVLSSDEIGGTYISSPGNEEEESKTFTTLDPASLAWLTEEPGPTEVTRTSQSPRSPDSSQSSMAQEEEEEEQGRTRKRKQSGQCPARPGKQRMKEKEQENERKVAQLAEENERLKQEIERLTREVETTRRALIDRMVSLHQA

Measured: fold induction of mRNA

COc1ccc(/C=C/C=C2C(=O)NC(=O)NC2=O)cc1
active: HO-1 5.54 | BiP 2.18 | GCLM 1.6 | Hsp70 18.9 | [1] 2.08
